Values joined by “and” are separate entries in the source; they are usually repeats but may differ in a detail not shown here. Equal entries are not always repeated. Where two headings read alike, the source gives them in different places.
Columns and labels:
[1] = biological target: T1, human MT1 (hMT1) (Homo sapiens, UniProt P48039); test: [35S]-GTPγS binding, agonist mode GTPγS; format: biochemical
[2] = biological target: T2, MT2 (Homo sapiens, UniProt P49286); test: HTRF cAMP assay, agonist mode cAMP; format: cell-based; conditions: for Emax, cAMP (+): hMT2, inhibition of cAMP production, normalization vs melatonin
T2 sequence (P49286 1-362): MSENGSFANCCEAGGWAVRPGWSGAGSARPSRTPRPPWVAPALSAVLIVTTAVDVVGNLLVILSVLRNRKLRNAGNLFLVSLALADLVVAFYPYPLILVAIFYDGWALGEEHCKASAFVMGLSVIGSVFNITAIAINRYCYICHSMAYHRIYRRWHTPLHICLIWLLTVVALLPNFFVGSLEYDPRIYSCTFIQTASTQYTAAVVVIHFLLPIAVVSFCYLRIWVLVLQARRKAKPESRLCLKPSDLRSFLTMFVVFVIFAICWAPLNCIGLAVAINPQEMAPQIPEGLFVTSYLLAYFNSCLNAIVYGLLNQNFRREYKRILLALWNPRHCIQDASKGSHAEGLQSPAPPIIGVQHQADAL

[3] = biological target: T1, human MT1 (hMT1); test: 2-[125I]-iodomelatonin competition binding, CHO-K1 membranes
[4] = biological target: T2, MT2; test: Overall functionality from the signaling pathway panel
[5] = biological target: T3, human MT2 (hMT2) (Homo sapiens, UniProt P49286); test: 2-[125I]-iodomelatonin competition binding, CHO-K1 membranes
T3 sequence (P49286 1-362): T2 sequence (P49286 1-362)

[6] = biological target: T2, MT2; test: HTRF cAMP assay, antagonist mode cAMP; format: cell-based
[7] = biological target: T4, MT1 (Homo sapiens, UniProt P48039); test: Overall functionality from the signaling pathway panel
[8] = biological target: T2, MT2; test: Receptor internalization, U2O-S cells; format: cell-based; conditions: for receptor internalization: MT2
[9] = biological target: T2, MT2; test: β-arrestin recruitment, PathHunter CHO-K1 cells; format: cell-based
[10] = biological target: T4, MT1; test: Cellular dielectric spectroscopy; format: cell-based; conditions: MT1
[11] = biological target: T4, MT1; test: Receptor internalization, DLD-1 cells; format: cell-based
[12] = biological target: T3, human MT2 (hMT2); test: [35S]-GTPγS binding, antagonist mode GTPγS; format: biochemical
[13] = biological target: T4, MT1; test: HTRF cAMP assay, agonist mode cAMP; format: cell-based; conditions: inhibition of cAMP production, normalization vs melatonin
[14] = biological target: T4, MT1; test: β-arrestin recruitment, PathHunter CHO-K1 cells; format: cell-based
[15] = biological target: T2, MT2; test: Cellular dielectric spectroscopy; format: cell-based; conditions: MT2
[16] = biological target: T3, human MT2 (hMT2); test: [35S]-GTPγS binding, agonist mode GTPγS; format: biochemical
[17] = biological target: T1, human MT1 (hMT1); test: [35S]-GTPγS binding, antagonist mode GTPγS; format: biochemical
[18] = MT1 Affinity (pKi), against 2-[125I]iodomelatonin

T4 sequence (P48039 whole entry): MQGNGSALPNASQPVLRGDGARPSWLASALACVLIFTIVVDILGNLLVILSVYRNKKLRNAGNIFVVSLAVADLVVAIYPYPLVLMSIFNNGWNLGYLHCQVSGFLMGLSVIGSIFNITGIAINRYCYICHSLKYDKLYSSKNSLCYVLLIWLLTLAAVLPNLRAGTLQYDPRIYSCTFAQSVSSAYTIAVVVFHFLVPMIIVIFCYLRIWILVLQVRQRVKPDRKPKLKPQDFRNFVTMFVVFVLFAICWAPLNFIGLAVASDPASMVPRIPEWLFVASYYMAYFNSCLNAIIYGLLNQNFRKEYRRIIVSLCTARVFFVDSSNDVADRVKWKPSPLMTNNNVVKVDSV
T1 sequence (P48039 whole entry): as above

Row | Compound | Ki [3, 18] [nM] | MT2 Our data (functionality) [4] | Ki [5] [nM] | MT1 Our data (functionality) [7] | receptor internalization [8] | further results
1 | CCC(=O)NC1Cc2ccccc2C(c2ccccc2)C1 (centres unmarked) [4P‐PDOT, 4‐phenyl‐2‐propionamidotetraline, reference compound] | 141 | partial ago | 1.07 | partial ago |  | induction of GTPγS binding [1]: does not induce GTPγS binding; Emax, cAMP (+) [2]: ~90% and 100%; EC50 ([2]; pEC50, cAMP production inhibition, MT2, text): 2 nM; Ki ([3]; affinity for MT1, order of magnitude given in text): ~100 nM; antagonism in cAMP assay ([6]; MT2): completely inactive
2 | COc1ccc2cccc(CCNC(C)=O)c2c1 [Agomelatine, N‐[2‐(7‐methoxynaphthalen‐1‐yl)ethyl]acetamide, reference compound] |  | ago |  | ago |  | MT2 Our data (functionality) ([4]; listed as S20098): agonists; MT1 Our data (functionality) ([7]; listed as S20098): agonists
3 | CC(=O)NCCc1c(Cc2ccccc2)[nH]c2ccccc12 [Luzindole, N‐acetyl‐2‐benzyltryptamine, reference compound] | 257 | partial ago |  | antago | induces the internalization | Emax, cAMP (+) [2]: 70%; EC50 [8]: ~10 nM; Emax ([6]; read-out: Emax, cAMP (−)): 55%; β-arrestin recruitment [9]: does not recruit
4 | COc1ccc2[nH]cc(CCNC(C)=O)c2c1 [Melatonin, N‐acetyl‐5‐methoxytryptamine, reference compound] |  |  |  | ago |  | 
5 | O=C(NCCc1cccc2ccccc12)C1CCC1 [S20928, (N‐[2‐(1‐naphthyl)ethyl]cyclobutanecarboxamide)] | 170 |  |  |  | does not induce internalization | cell shape shift, CellKey [10]: failed to elicit any significant shift in shape; receptor internalization [11]: does not induce internalization; inhibition of melatonin-induced GTPγS binding [12]: slightly inhibits; Emax, cAMP (+) [2]: 50%; Emax, cAMP (+) [13]: less than 25%; β-arrestin recruitment [14]: capacity to recruit; concentration of maximal effect (CellKey) [15]: ~100 nmol/L; induction of GTPγS binding [16]: induces the binding of GTPγS; inhibition of melatonin-induced GTPγS binding [17]: fully inhibits
6 | COc1ccc2ncn(CCNC(C)=O)c2c1 [S21278, N‐[2‐(6‐methoxy‐benzimidazol‐1‐yl)ethyl]acetamide] | 603 | agonists and ago | 603 | agonists | not enough to elicit internalization | β-arrestin recruitment [14]: complete recruitment
7 | CCc1ccc2scc(CCNC(C)=O)c2c1 [S22153, N‐[2‐(5‐ethylbenzothiophen‐3‐yl)ethyl]acetamide] | 9.77 | ago | 7.94 | partial ago |  | 
8 | COc1cc2c(CCNC(C)=O)c(I)[nH]c2cc1[N+](=O)[O-] [S27128, N‐[2‐(2‐iodo‐5‐methoxy‐6‐nitro‐1H‐indol‐3‐yl)ethyl]acetamide] | 1.2 | agonists and ago |  | agonists and ago | exhibited subsequent internalization | receptor internalization [11]: exhibited subsequent internalization
9 | COCC(CNC(C)=O)c1cccc2ccc(OC)cc12 (centres unmarked) [S73893, N‐[3‐methoxy‐2‐(7methoxy‐ 1‐naphthyl)propyl]acetamide] | 4.37 |  | 7.76 | partial ago |  | 
10 | COc1ccc2cccc(C(CO)CNC(=O)CF)c2c1 (centres unmarked) [S75436, 2‐fluoro‐N‐[3‐hydroxy‐2‐(7‐methoxy‐1‐naphthyl)propyl]acetamide] |  | agonists and ago | 1.12 | agonists and ago |  | Ki [3]: 9.12 nM
11 | COc1ccc2c(c1)C(CNC(N)=O)Cc1ccccc1C2 (centres unmarked) [S77840, 1‐[(8‐methoxy‐10,11‐dihydro‐5H‐dibenzo[a,d]‐[7]annulen‐10‐yl)methyl]urea] |  |  |  |  | lack of capacity to provoke internalization | receptor internalization [11]: lack of capacity to provoke internalization; cell shape shift, CellKey [15]: failed to elicit any significant shift in shape
12 | COc1ccc2[nH]cc(CCNC(=O)CI)c2c1 [SD6, N‐[2‐(5‐methoxy‐1H‐indol‐3‐yl)ethyl] iodoacetamide] |  | agonists and ago |  | agonists and ago |  | 
13 | COc1cc2c(CCNC(C)=O)c[nH]c2cc1I [SD1881, N‐[2‐(6‐iodo‐5‐methoxy‐1H‐indol‐3‐yl)ethyl]acetamide] | 1.45 | agonists and ago | 2.45 | agonists and ago |  | 
14 | COc1ccc2[nH]cc(CCNC(C)=O)c2c1I [SD1882, N‐[2‐(4‐iodo‐5‐methoxy‐1H‐indol‐3‐yl)ethyl] acetamide] | 17.4 | ago | 10.2 | partial ago |  | concentration of maximal effect (CellKey) [10]: ~100 nmol/L
15 | COc1cc(I)c2[nH]cc(CCNC(C)=O)c2c1 [SD1918, N‐[2‐(7‐iodo‐5‐methoxy‐1H‐indol‐3‐yl)ethyl]acetamide] | 45.7 | ago | 47.9 | partial ago |  | 
16 | methoxyverapamil [D600, reference compound] |  |  |  | antago | did not induce | receptor internalization [11]: did not induce; MT1 Affinity (pKi) ([3]; against 2-[125I]iodomelatonin): 7 and 7.04; β-arrestin recruitment [14]: did not induce; MT2 Affinity (pKi) ([5]; against 2-[125I]iodomelatonin): <6; β-arrestin recruitment [9]: did not induce

Reference: paper PMC6935685 (Pharmacology Research & Perspectives, 2019)
